Results taken from patent US20140322145A1, “ANTIMICROBIAL COMPOSITION” (Rohm and Haas Company, priority 2011, published 2014).

Experiments:
Assay type in all cases: cell-based
[1] = tested on: Escherichia coli (10536 strain); test: 15 seconds contact-time bacterial kill assay, microtitre plate, plate counts (Examples 1 and 3); conditions: for MBC of antimicrobial alcohol: alcohol alone
Method: The efficacies of antimicrobial agents can be usefully compared by determining the Minimum Biocidal Concentration (MBC). The MBC is defined as the lowest absolute concentration of the particular active that provides complete kill (zero bacterial growth).
Antimicrobial efficacy is tested against a representative pathogenic bacterial organism, Gram negative Escherichia coli. Concentrations of actives are expressed in terms of the percentage weight/volume (% w/v) throughout Example 1.
An overnight culture of Escherichia coli (10536 strain) was prepared in 50 ml total volume of TSB broth, grown for ca. 18 hrs at 37° C. and shaken at 150 rpm. 1 ml of this overnight E. coli culture was transferred to 50 ml of fresh TSB broth and incubated at 37° C. at 150 rpm for ca. 4 hours. This culture was separated into equal volumes and centrifuged at 4000 rpm for 15 minutes, washed with sterile saline (0.85% NaCl), centrifuged once more and re-suspended in saline to give a final concentration of 0.8 OD620 equivalent to about 10^8 cells per milliliter for this particular organism. Here, OD620 indicates the absorbance of a sample in a cuvette of 1.0 cm path length at a wavelength of 620 nm. This bacterial stock was used for assaying against antimicrobial actives (in triplicate).
The following assay describes the testing of 8 materials using 6 dilutions across half of a 96-well micro titre plate (MTP). Using this approach it is possible to assay 16 actives (without replicates) with one full dilution plate, replicating this set up in two halves of the plate columns, 1-6 and 7-12.
1M solutions of the test actives were prepared in dimethylsulphoxide (DMSO).
Aliquots (270 μl) of the materials at 1.11 times the final concentration were dispensed into the wells of the MTP along one column (A1-H1). This MTP was labelled as the “Screening plate”.
In another MTP, labelled as the “Dilution plate”, 270 μl of D/E neutralising solution from DIFCO Composition was added to column 1. The composition of the neutralising solution was as follows: pancreatic digest of casein, 5.0 g/L; Yeast Extract, 2.5 g/L; Dextrose, 10 g/L, sodium thioglycollate, 1.0 g/L, sodium thiosulphate, 6.0 g/L; sodium bisulphite. 2.5 g/L; Polysorbate 80, 5.0 g/L; lecithin 7.0 g/L; bromocresol purple, 0.02 g/L with a pH in the range 7.6±0.2.
270 μl of tryptone diluent solution was added to all the remaining wells of the Dilution MTP (columns 2-6).
Bacterial stock (30 μl) was then added to the prepared 270 μl of the solution of actives in the Screening Plate and mixed, using a multichannel pipette with 8 tips to aspirate and dispense the same volume of bacterial stock in parallel to 8 wells in rows A-H. After a contact time of 15 seconds, the mixtures were quenched by transferring 30 μl volumes of the mixtures into the 270 μl DIE neutralising solution in the prepared dilution plate, using aspiration to mix. After exactly 5 minutes in the DIE neutralising solution, 30 μl volumes were transferred from column 1 to column 2 of the Dilution MTP and mixed, before transferring further 30 μl volumes from column 2 into column 3. This process was repeated serially diluting the bacteria across the plate to column 6.
30 μl volumes from each well in the Dilution MTP were transferred onto pre-labelled segment of Tryptone Soya Agar (TSA) plates starting from the lowest bacterial concentration (highest dilution, column 6) to the highest bacterial concentration (column 1). The TSA plates were allowed to stand for ca. 2 hours so that the 30 μl inocula spots could dry and the plates were then inverted and incubated overnight at 37° C. before enumerating the bacterial colonies at the labelled dilutions to determine the effects of the actives on bacterial growth.
Mean bacterial survival numbers NMBS (expressed in Log CFU/ml) are obtained by first determining the segment of the TSA plate where the number of bacterial colonies is countable. From the colony number in this segment, NMBS is calculated by the formula: […]

[2] = tested on: Escherichia coli (E. coli—ATCC #10536); test: Automated assessment of efficacy in surfactant base (Example 4); conditions: for 15 second bactericidal efficacy in combination with thymol: at concentrations lower than their MBC in the same surfactant formulation; for MBC (minimum biocidal concentration): in 2.85% sodium cocoyl glycinate + 1.85% sodium lauroamphoacetate solution at pH 10
Method: In these examples, the efficacy of combinations of thymol and antimicrobial alcohols of the invention were tested in a surfactant cleansing formulation comprising 2.85% sodium cocoyl glycinate and 1.85% sodium lauroamphoacetate. This corresponds to a 50% in use dilution with water of a typical neat formulation containing 5.7% cocoyl glycinate and 3.7% % sodium lauroamphoacetate during hand washing. Solutions were prepared such that the concentrations of the surfactant components and test actives were 1.1 times the final desired concentration in order to allow for dilution with the bacterial inoculum in the test. The solutions were manually adjusted to pH 10.0 by dropwise addition of sodium hydroxide solution, as measured with a pH meter at ambient temperature. Solutions of the thymol and/or antimicrobial alcohols of the invention were prepared at a maximum of 24 hours before testing. The same thymol and antimicrobial alcohols were used as in Examples 1 and 3.
The efficacy of the combinations of the present invention was determined against the same bacterium as in Example 1, Escherichia coli (E. coli—ATCC #10536), at a concentration of approximately 1×10^8 bacteria per mL.
Tests were conducted using standard microtiter plate assays using an automated liquid handling system. 270 μl of the surfactant test solution was pipetted into each well of the microtitre plate (Nunc F Gamma Irradiated 96F untreated microtitre plates of clear polystyrene) and 30 μl of the bacterial suspension was then added. After exactly 15 seconds of bacterial exposure, a 30 μl volume of bacterial cells was withdrawn and transferred to 270 μl of D/E quench solution. After 5 minutes in the DIE quench, the optical density (OD) was measured for each plate in turn at two specific wavelengths (450 nm and 590 nm). These provide a dual check of antimicrobial activity, as the OD450 reading is specific for the yellow colour of DIE quench when bacterial growth is observed, whereas OD590 is specific for the initial purple colour of the DIE quench which is retained if no bacterial growth is observed. After the time zero OD measurements, plates were then incubated at 37° C. overnight (16 hours) before repeating the OD measurements. Delta OD values were calculated by subtracting […] at time=16 hours. Bacterial growth is observed as an increase in OD450 and a decrease in OD590. To identify antibacterially efficacious systems (those preventing appreciable bacterial growth after incubation), the following threshold changes in OD readings have been adopted: if (1). OD450 increases by less than 0.2 absorbance unit (AU) on incubation and (2). OD590 decreases by less than 0.35 AU on incubation. Conversely, where OD450 increases by more than 0.1 AU and OD590 decreases by more than 0.1 AU after incubation, corresponding to a colour shift from purple to yellow, the test system allows bacterial growth and is not deemed efficacious. Four replicate measurements in the same plate have been made for each test system. The number of replicate wells showing either bacterial growth or no growth is also readily assessed by eye by following the colour change. Thymol and terpineol were tested both alone and in combination for comparison purposes.
In each case, binary mixtures were assessed in the weight to weight ratio of thymol to antimicrobial alcohol of 1:2.5.

[3] = tested on: Escherichia coli (E. coli—ATCC #10536); test: High resolution MBC synergy assay in phosphate buffer containing 35% dipropylene glycol (Example 2); conditions: complete kill in 15 seconds; other component 0
Method: In this Example, a wide range of combinations of chemicals was tested by conducting high resolution MBC assays of isocyclogeraniol in the presence of various concentrations of thymol. The materials were sourced in the same way as for Example 1. Synergy tests were conducted using standard microtiter plate assays with phosphate buffer containing 35% dipropylene glycol (DPG). […] The MBC plate was inoculated one column at a time with the test microorganism. An aliquot of the inoculated well was transferred at 15 seconds to a plate containing a neutralizing agent (D/E Neutralizing Broth), mixed and held for 5 minutes before being transferred to a growth plate containing trypticase soy broth (TSB). The TSB plate was incubated at 37° C. and read for the presence I absence of growth at 24 hours. […] This microorganism is representative of natural contaminants in many consumer and industrial applications.

[4] = Table 10, from the data in Table 9, 15 seconds

Compound	MBC (minimum biocidal concentration) [1, 4] [% w/v]	MBC of antimicrobial alcohol ([1]; Table 11, 15 seconds)	15 second bactericidal efficacy in combination with thymol [2]	MBC (minimum biocidal concentration) [2]	MBC (minimum biocidal concentration) ([1]; Table 4, lowest concentration giving zero bacterial survival after 15 seconds, upper boundaries) [% w/v]	MBC of antimicrobial alcohol ([1]; Table 5, 15 seconds)	MBC of component alone (MBCA, MBCB) [3] [weight %]	MBC (minimum biocidal concentration) ([2]; listed as Isocyclogeraniol) [% w/v]	MBC of thymol ([1]; Table 5, thymol alone, 15 seconds)	MBC of thymol ([1]; Table 11, MBC of thymol of Example 1)
CC1CCC(CO)C(C)C1 (centres unmarked) [dihydrofloralol, (2,4-dimethylcyclohexyl)methanol]	0.5	0.5 % (w/v)	complete kill in all 4 replicates	0.5 % w/v	–	–	–	–	–	–
CC1=CCC(CO)C(C)C1 (centres unmarked) [floralol, (4,6-dimethylcyclohex-3-en-1-yl)methanol]	0.3	0.3 % (w/v)	complete kill in all 4 replicates	0.4 % w/v	–	–	–	–	–	–
CC1=CC(C)C(CO)C(C)C1 (centres unmarked) [isocyclogeraniol, (2,4,6-trimethylcyclohex-3-en-1-yl)methanol]	–	–	complete kill in all 4 replicates	higher than the highest tested concentrations	0.3	0.3 % (w/v)	0.6	>0.5	–	–
Cc1ccc(C(C)C)c(O)c1 [thymol, 2-isopropyl-5-methylphenol]	–	–	–	–	–	–	0.5	–	0.05 % (w/v)	0.05 % (w/v)
